Laboratory results taken from patent US5001127A, “4-substituted pyrazolo[3,4-d]pyrimidine derivatives” (Ortho Pharmaceutical Corporation, priority 1989, dated 1991).
Like-named read-outs stand apart in the source and are kept apart here.

System: Adult mongrel dogs
Experiment: Cardiotonic activity in anesthetized dogs (MAP, HR, dP/dtmax, contractile force), iv infusion
Type: in vivo
Settings: for change in vivo at 1.875 mg/kg / ED (50% increase): Canis lupus familiaris; for ED (50% increase): dose producing 50% increase above baseline in myocardial contractile force, graphical estimation (n<3) or linear regression (n≥3), read-out: contractile force (CF) ED50
Method: Adult mongrel dogs were anesthetized with sodium pentobarbital (45 mg/kg, i.p.) and artificially respired. Mean arterial pressure (MAP) was recorded from a cannulated femoral artery and drugs were infused into a cannulated femoral vein. The arterial pressure pulse was used to trigger a cardiotachometer for determination of heart rate (HR). Left ventricular pressure was measured with a Millar catheter and dP/dtmax was derived. A right thoracotomy was performed and myocardial contractile force (CF) was measured with a Walton Brodie strain gauge sutured to the right ventricle. The ventricular muscle was stretched to produce a baseline tension of 100 g. A standard dose of dopamine (10-15 ug/kg/min for 3 min) was administered to determine myocardial responsiveness to inotropic stimulation. Test compounds were solubilized in a small volume of DMF diluted to a final concentration of 10% in physiological saline. Alternatively, where possible, a soluble hydrochloride salt was prepared by addition of 0.1N HCl diluted in physiological saline. Vehicles were tested in appropriate volumes and found to exert less than a 5% effect on contractile force. For iv studies, compounds were administered by infusion pump (one drug per animal) at rates of 0.58-2.2 mL/min in three to four stepwise increasing doses. Each dose was infused over 5 min immediately after the effect of the previous dose peaked. MAP, HR, dP/dtmax and CF responses were continuously monitored on a Beckman or Gould recorder and expressed as a percent change from pre-drug control values vs. the cumulative dose of drug administered. For these studies, n represents the number of test animals used.
Quantitation of the inotropic potency was obtained by calculation of the contractile force (CF) ED50. This was defined as the dose of compound that produced a 50% increase above baseline in myocardial contractile force. The value was obtained from three to four point dose-response curves using either graphical estimation (n<3) or linear regression analysis (n≥3). Numbers in parentheses are number of animals screened.

[1] = cumulative dose 1.875 mg/kg, femoral artery, read-out: MAP (mean arterial pressure), % Δ from control
[2] = cumulative dose 1.875 mg/kg, read-out: HR (heart rate), % Δ from control
[3] = cumulative dose 1.875 mg/kg, read-out: dP/dt (left ventricular dP/dtmax), % Δ from control
[4] = cumulative dose 1.875 mg/kg, right ventricle strain gauge, read-out: CF (myocardial contractile force), % Δ from control

## OC(CSc1ncnc2[nH]ncc12)CN1CCN(C(c2ccc(F)cc2)c2ccc(F)cc2)CC1 (stereo not drawn) [Example 1]
[1]
  change in vivo at 1.875 mg/kg: -3%
[2]
  change in vivo at 1.875 mg/kg: -10%
[3]
  change in vivo at 1.875 mg/kg: 124%
[4]
  change in vivo at 1.875 mg/kg: 205%
  ED (50% increase): 0.225 mg/kg

## OC(CSc1ncnc2[nH]ncc12)CN1CCN(C(c2ccccc2)c2ccccc2)CC1 (stereo not drawn) [Example 2, 4-[2-Hydroxy-1-[(diphenylmethyl)piperazin-4-yl)-3-propanylthio]-1H-pyrazolo[3,4-d]pyrimidine Hemihydrate]
[1]
  change in vivo at 1.875 mg/kg: -12%
[2]
  change in vivo at 1.875 mg/kg: -11%
[3]
  change in vivo at 1.875 mg/kg: 48%
[4]
  change in vivo at 1.875 mg/kg: 97%

## OC(COc1ncnc2c1cnn2C1CCCCO1)CN1CCN(C(c2ccc(F)cc2)c2ccc(F)cc2)CC1 (stereo not drawn) [Example 3, 4-[3-[4-[Bis(4-fluorophenyl)methyl]-piperazin-1-yl]-2-hydroxy-propoxy]-1-(tetrahydropyran-2-yl)pyrazolo[3,4-d]pyrimidine]
[1]
  change in vivo at 1.875 mg/kg: -13%
[2]
  change in vivo at 1.875 mg/kg: 1%
[3]
  change in vivo at 1.875 mg/kg: 1%
[4]
  change in vivo at 1.875 mg/kg: 14%

## OC(CSc1ncnc2[nH]ncc12)CN1CCN(C(c2ccc(Cl)cc2)c2ccc(Cl)cc2)CC1 (stereo not drawn) [Example 4, 4-[1-[1-[Bis(4-chlorophenyl)methyl]piperazin-4-yl]-2-hydroxy-3-pronanylthio]-1H-pyrazolo[3,4-d]pyrimidine]
[1]
  change in vivo at 1.875 mg/kg: 8%
[2]
  change in vivo at 1.875 mg/kg: 1%
[3]
  change in vivo at 1.875 mg/kg: 90%
[4]
  change in vivo at 1.875 mg/kg: 163%
  ED (50% increase): 0.45 mg/kg

## OC(CSc1ncnc2c1cnn2CC1CO1)CN1CCN(C(c2ccccc2)c2ccccc2)CC1 (stereo not drawn) [Example 5, 1-(1,2-Epoxy-3-propanyl)-4-[1-(diphenylmethylpiperazin-4-yl]-2-hydroxy-3-propanylthio]-1H-pyrazolo[3,4-d]pyrimidine]
Cumulative dose 1.875 mg/kg
  HR (heart rate), % Δ from control: -14 % Δ from control
  dP/dt (left ventricular dP/dtmax), % Δ from control: 28 % Δ from control
Cumulative dose 1.875 mg/kg, femoral artery
  MAP (mean arterial pressure), % Δ from control: -8 % Δ from control
Cumulative dose 1.875 mg/kg, right ventricle strain gauge
  CF (myocardial contractile force), % Δ from control: 38 % Δ from control

## OC(CNc1ncnc2[nH]ncc12)CN1CCN(C(c2ccc(F)cc2)c2ccc(F)cc2)CC1 (stereo not drawn) [Example 7, 4-[3-[4-Bis(4-fluorophenyl)methyl]-1-piperazinyl]-2-hydroxypropylamino-1H-pyrazolo[3,4-d]pyrimidine sesquihydrate]
[1]
  change in vivo at 1.875 mg/kg: 6%
[2]
  change in vivo at 1.875 mg/kg: -20%
[3]
  change in vivo at 1.875 mg/kg: 33%
[4]
  change in vivo at 1.875 mg/kg: 111%

## CC(=O)OC(CNc1ncnc2[nH]ncc12)CN1CCN(C(c2ccc(F)cc2)c2ccc(F)cc2)CC1 (stereo not drawn) [Example 8, 4-[3-[4-Bis(4-fluorophenyl)methyl]-1-piperazinyl]-2-acetoxypropylamino-1H-pyrazolo[3,4-d]pyrimidine Hemihydrate]
[1]
  change in vivo at 1.875 mg/kg: 6%
[2]
  change in vivo at 1.875 mg/kg: -1%
[3]
  change in vivo at 1.875 mg/kg: 61%
[4]
  change in vivo at 1.875 mg/kg: 135%

## CN(CC(O)CN1CCN(C(c2ccc(F)cc2)c2ccc(F)cc2)CC1)c1ncnc2[nH]ncc12 (stereo not drawn) [Example 9, 4-[3-[4-Bis(4-fluorophenyl)methyl-1-piperazinyl]-2-hydroxypropylamino-N-methylamino-1H-pyrrazolo[3,4-d]pyrimidine Hemihydrate]
[1]
  change in vivo at 1.875 mg/kg: 4%
[2]
  change in vivo at 1.875 mg/kg: 3%
[3]
  change in vivo at 1.875 mg/kg: 52%
[4]
  change in vivo at 1.875 mg/kg: 54%

## CCN(CC(O)CN1CCN(C(c2ccc(F)cc2)c2ccc(F)cc2)CC1)c1ncnc2[nH]ncc12 (stereo not drawn) [Example 10, 4-[3-[4-Bis(4-fluorophenyl)methyl]-1-piperazinyl]-2-hydroxypropyl-N-ethylamino]-1H-pyrazolo[3,4-d]pyrimidine.1/4 Hydrate]
[1]
  change in vivo at 1.875 mg/kg: 3%
[2]
  change in vivo at 1.875 mg/kg: 13%
[3]
  change in vivo at 1.875 mg/kg: 44%
[4]
  change in vivo at 1.875 mg/kg: 63%

## CON(CC(O)CN1CCN(C(c2ccc(F)cc2)c2ccc(F)cc2)CC1)c1ncnc2[nH]ncc12 (stereo not drawn) [Example 11, 4-[3-[4-Bis(4-fluorophenyl)methyl-1-piperazinyl-2-hydroxypropyl-N-methoxyamino]-(1H)-pyrazolo[3,4-d]pyrimidine.5/4 Hydrate]
[1]
  change in vivo at 1.875 mg/kg: -2%
[2]
  change in vivo at 1.875 mg/kg: 5%
[3]
  change in vivo at 1.875 mg/kg: 25%
[4]
  change in vivo at 1.875 mg/kg: 37%
